Reference: patent publication US10081629B2, “Amide derivatives and pharmaceutically acceptable salts thereof, preparation method thereof and medicinal application thereof” (Shanghai Hengrui Pharmaceutical Co., Ltd., priority 2014, dated 2018)

Experiments:
human mPGES1 = human mPGES1 (Homo sapiens (Human), UniProt O14684); assay: Inhibition activity for human mPGES1 (enzyme assay, PGE2 HTRF); format: biochemical; details: membrane protein from HEK-293 F transfected with human mPGES1
Protocol: The method described here is used for determining the inhibition activity of the present compounds for human mPGES1.
• 1. PGE2 Assay kit (Cisbio, #62P2APEB) • 2. Prostaglandin H2 (Sigma, #P7867-1MG) • 3. FlexStation3 microplate reader. II. Experimental Procedure • 1. Obtaining the membrane proteins of mPGES1 enzyme
The cell density of HEK-293 F was grown to 6×10^5 per milliliter and was transferred with the plasmid containing human mPGES1 gene by transfection reagent PEI the next day. The cells were continuously cultured for 72 hours at 37° C. with shaking. After centrifuging at 1100 g for 5 minutes, the cells were harvested. After ultrasonication in an ice bath and centrifugation at 5000 g for 10 minutes, the supernatant was obtained. The supernatant was centrifuged at 100000 g for 1 hour to obtain a precipitate. The precipitate was resuspended with storage buffer containing 10% glycerinum, subpackaged and frozen rapidly under liquid nitrogen, and stored at −80° C. • 2. mPGES1 enzyme assay
mPGES1 was diluted with assay buffer and added into plate at 49 μL/well supplemented with 1 μL of compound (the final concentration of each compound at seven gradient concentrations was 10000 nM, 1000 nM, 100 nM, 10 nM, 1 nM, 0.1 nM and 0.01 nM). […] Then, each well was added with 53.8 μL of 6 mg/mL SnCl2 to quench the reaction. The sample was diluted with dilute buffer at 1:400. 10 μl of diluted sample, 5 μL PGE2-d2 and 5 μL anti-PGE2 Cryptate were added to a black 384-well plate, and incubated at 4° C. overnight. HTRF was determined using Flexstation, and the IC50 of the compounds was obtained by data processing software.
The inhibition activity of the present compounds on mPGES1 was tested by the assay described above.

[1] = test system: secretion of PGE2 by A549 cells stimulated with IL-1β; assay: Inhibition of the secretion of PGE2 by A549 cells stimulated with IL-1β; format: cell-based; details: Homo sapiens, A549; IL-1β 0.2 ng/mL, 24 hours
Excerpt: The method described here was used for determining the inhibition activity of the present compounds on the secretion of PGE2 by A549 cells stimulated with IL-1β.
• 1. PGE2 Assay kit (Cisbio, #62P2APEB) • 2. IL-1β (Peprotech, # AF-200-01B) • 3. Cell line: A549 (ATCC: CCL-185) • 4. FlexStation3 microplate reader. II. Experimental Procedure
On the first day, A549 cells were inoculated in a 96-well plate at 40000/well. On the second day, the culture medium in the 96-well plate was removed and then added with 90 μL of compound diluted with culture medium (the concentration of each compound at seven gradient concentrations was 11111 nM, […], 1.11 nM, 0.11 nM and 0.011 nM). The cells were incubated for 30 minutes at 37° C. in an incubator, and then added with IL-1β to a final concentration of 0.2 ng/mL. Then, the cells were incubated for another 24 hours at 37° C. On the third day, 10 μl of supernatant, 5 μL of PGE2-d2 and 5 μL of anti-PGE2 Cryptate were added into a black 384-well plate, and then incubated at 4° C. overnight. HTRF was determined using Flexstation, and the IC50 of the compounds was obtained by data processing software.
The inhibition activity of the present compounds on the secretion of PGE2 by A549 cells stimulated with IL-1β was determined by the assay described above.

Chain of human mPGES1 (O14684 whole entry): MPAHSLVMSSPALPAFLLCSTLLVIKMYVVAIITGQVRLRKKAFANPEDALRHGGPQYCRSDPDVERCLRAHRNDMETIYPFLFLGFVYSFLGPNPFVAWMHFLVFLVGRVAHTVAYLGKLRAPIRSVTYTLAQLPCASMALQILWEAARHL

SMILES	IC50 (human mPGES1)	IC50 [1]
CC(C)(C)C(=O)NCc1ccc(Cl)c(C(=O)Nc2ccc3nn(-c4ccc(Cl)cc4)cc3c2)c1 [Example 16, 2-Chloro-N-(2-(4-chlorophenyl)-2H-indazol-5-yl)-5-((2,2-dimethylpropanoylamino)methyl)benzamide]	9.31 nM	26.2 nM
CC(C)C(=O)NCc1cnc(C(F)F)c(C(=O)Nc2ccc3nc(-c4ccc(C(F)(F)F)cc4)sc3c2)c1 [Example 54, 2-(Difluoromethyl)-5-((2-methylpropanoylamino)methyl)-N-(2-(4-(trifluoromethyl)phenyl)benzo[d]thiazol-6-yl)nicotinamide]	47.1 nM	58.5 nM
CC(C)(C)C(=O)NCc1ccc(Cl)c(C(=O)Nc2ccc3c(c2)C(=O)N(c2ccc(C(F)(F)F)cc2)C3)c1 [Example 58]	8.51 nM	2.18 nM
Cn1c(-c2ccc(C(F)(F)F)cc2)cc2cc(NC(=O)c3cc(CNC(=O)C(C)(C)F)cnc3C(F)F)ccc21 [Example 15, 2-(Difluoromethyl)-5-(((2-fluoro-2-methyl-propanoyl)amino)methyl)-N-(1-methyl-2-(4-(trifluoromethyl)phenyl)-1H-indol-5-yl)nicotinamide]	23.4 nM	33.3 nM
CC(C)(F)C(=O)NCc1cnc(C(F)F)c(C(=O)Nc2ccc3c(c2)cc(-c2ccc(Cl)cc2)n3[C@H]2CCOC2)c1 [Example 46, (S)-N-(2-(4-Chlorophenyl)-1-(tetrahydrofuran-3-yl)-1H-indol-5-yl)-2-(difluoromethyl)-5-(((2-fluoro-2-methyl-propanoyl)amino)methyl)nicotinamide]	2.71 nM	24.7 nM
CC1(C(=O)NCc2cnc(C(F)F)c(C(=O)Nc3ccc4oc(-c5ccc(C(F)(F)F)cc5)nc4c3)c2)CC1 [Example 43, 2-(Difluoromethyl)-5-(((1-methylcyclopropanecarbonyl)amino)methyl)-N-(2-(4-(trifluoromethyl)phenyl)benzo[d]oxazol-5-yl)nicotinamide]	16 nM	58.2 nM
CC(C)C(=O)NCc1cnc(C(F)F)c(C(=O)Nc2ccc3oc(-c4ccc(C(F)(F)F)cc4)cc3c2)c1 [Example 39, 2-(Difluoromethyl)-5-((2-methylpropanoylamino)methyl)-N-(2-(4-(trifluoromethyl)phenyl)benzofuran-5-yl)nicotinamide]	3.68 nM	30.5 nM
CCn1c(-c2ccccc2Cl)cc2cc(NC(=O)c3cc(CNC(=O)C(C)(C)F)cnc3C(F)F)ccc21 [Example 19, N-(2-(2-Chlorophenyl)-1-ethyl-1H-indol-5-yl)-2-(difluoromethyl)-5-(((2-fluoro-2-methyl-propanoyl)amino)methyl)nicotinamide]	8.12 nM	42.6 nM
CC(C)(F)C(=O)NCc1cnc(C(F)F)c(C(=O)Nc2ccc3oc(-c4ccc(C(F)(F)F)cc4)nc3c2)c1 [Example 23, 2-(Difluoromethyl)-5-(((2-fluoro-2-methyl-propanoyl)amino)methyl)-N-(2-(4-(trifluoromethyl)phenyl)benzo[d]oxazol-5-yl)nicotinamide]	4.73 nM	49 nM
CC(C)C(=O)NCc1cnc(C(F)F)c(C(=O)Nc2ccc3c(c2)cc(-c2ccc(C(F)(F)F)cc2)n3C)c1 [Example 9, 2-(difluoromethyl)-N-(1-methyl-2-(4-(trifluoromethyl)phenyl)-1H-indol-5-yl)5-((2-methylpropanoylamino)methyl)-nicotinamide]	15.6 nM	11.8 nM
CCn1c(-c2ccc(Cl)cc2)cc2cc(NC(=O)c3cc(CNC(=O)C(C)C)cnc3C(F)F)ccc21 [Example 10, 2-(Difluoromethyl)-N-(1-ethyl-2-(4-chlorophenyl)-1H-indol-5-yl)-5-((2-methylpropanoylamino)methyl)nicotinamide]	11.2 nM	12.3 nM
